Values after ≈ are worked out from the molar mass of the structure shown.
Columns and labels:
[1] = Effect of autoclaving on crystal formation at 4° C. over 43 days, pH 3.0, 3.5 and 4.0; assay type: physicochemical; conditions: for samples that developed crystals: 50 mg/ml
Protocol: Further studies were done in which etanidazole (50 mg/ml) solutions at pH 3.0, 3.5, and 4.0 were prepared and the effect of autoclaving was evaluated. At pH 3.0, 0 of 48 autoclaved samples and 0 of 48 non-autoclaved samples developed crystals when stored at 4° C. over 43 days. At pH 3.5, 0 of 49 autoclaved samples developed crystals, and 3 of 50 non-autoclaved samples developed crystals when stored at 4° C. over 43 days. At pH 4.0, 0 of 50 autoclaved samples developed crystals when stored at 4° C. for 43 days, but 1 of 50 non-autoclaved samples developed crystals.

[2] = Effect of initial etanidazole concentration on rate of decomposition in 0.05M citrate pH 5.5, 80° C.; assay type: physicochemical
Protocol: (§1) The k values shown in Tables 1-5 and FIG. 1 should be multipled by a factor of 2.303 to provide the actual k value.
(§2) The chemical stability of etanidazole was evaluated in solutions of varying composition stored at 80° C. Etanidazole was placed into suitable containers and sufficient buffer was added to result in a 1 mg/ml solution. A constant ionic strength of 0.3 was maintained with potassium chloride. All solutions were prepared in triplicate. The solution was divided into 2 ml sealed glass vials and was placed into cardboard storage boxes to protect the compound from light. At appropriate intervals, samples were removed from the stability chamber and cooled to room temperature. An aliquot of the sample was diluted with mobile phase containing internal standard prior to HPLC analysis. For those pH conditions where degradation was rapid, the sample aliquot was immediately quenched to neutral pH and room temperature.
(§3) Data were analyzed using methods as described by Martin et al. in "Physical Pharmacy", 3rd ed, pp 352-395 (1983).
The effect of initial etanidazole concentration on the rate of decomposition was examined in 0.05M citrate pH 5.5, at 80° C. Initial concentrations of 1, 25 and 50 mg/ml were employed.

[3] = Chemical stability (hydrolysis kinetics) of etanidazole in buffered solutions at 80° C.; assay type: physicochemical; conditions: for kobs, observed first-order rate constant: mean, n = 3
Protocol: as §1, §2, §3
In the intermediate pH range where buffers were employed, the observed first-order rate constant can be defined at any given pH with the following equation;
[…] [H+]+ko +kOH- [OH-]+kB [BT ]
where kH+ and kOH- are the second-order specific acid and specifiic base catalysis rate constants, respectively kB is the second-order rate constant for the catalysis due to the buffer, and [BT ] is the total buffer concentration. Plotting kobs vs [BT ] yields a slope of kB and a y-intercept of kH+ [H+]+ko +kOH- [OH-], the observed rate constant extrapolated to zero buffer concentration (k'). The observed rate constant extrapolated to zero buffer concentration (k') are used to generate the pH-rate profile (FIG. 1).
The buffer systems permit pH control through the equilibrium of their acidic and basic forms. Utilizing these equilibria, the rate constants for the individual buffer species may be calculated. In the acetate buffers, the second-order rate constant for the catalysis due to the acetate buffer is defined as follows;
[…]
where ^f CH3 COOH is the fraction of the acetate buffer in the neutral form, ^k (CH3 COOH) is the second-order rate constant for the catalysis due to the acetic acid species, ^f CH3 COO- is the fraction of the acetate buffer in the ionized form and ^k CH3 COO- is the second-order rate constant for the catalysis due to the acetate anion. Employing the same buffer for various pH conditions permits the determination of the second-order rate constants for the various species (Table 3).

[4] = Crystal formation on storage at 4° C., autoclaved vs non-autoclaved (reheated samples); assay type: physicochemical
Protocol: Sixteen samples of etanidazole solutions at various pHs, which contained crystals, were heated in a 56° C. water bath for 1 hour to dissolve the crystals. After heating, the samples were divided evenly.

Protocol for physchem: Solubility studies were carried out by placing excess etanidazole into a suitable container and rotating end-to-end for twenty four hours at 25° C. The suspension was passed through a 0.2μ filter with the first portion discarded to ensure saturation of the filter. An aliquot of the filtrate was diluted and analyzed by HPLC and the remainder of the filtrate was employed for pH determination.

samples that developed crystals ([1]; pH 3.0, autoclaved, 4° C. over 43 days): 0 of 48
samples that developed crystals ([1]; pH 3.0, non-autoclaved, 4° C. over 43 days): 0 of 48
samples that developed crystals ([1]; pH 3.5, autoclaved, 4° C. over 43 days): 0 of 49
samples that developed crystals ([1]; pH 3.5, non-autoclaved, 4° C. over 43 days): 3 of 50
samples that developed crystals ([1]; pH 4.0, autoclaved, 4° C. for 43 days): 0 of 50
samples that developed crystals ([1]; pH 4.0, non-autoclaved, 4° C., 43 days): 1 of 50
kobs, observed first-order rate constant ([2]; initial concentration 1 mg/ml): 0.00957 ± 7.37e-05 day⁻¹
kobs, observed first-order rate constant ([2]; initial concentration 25 mg/ml): 0.0127 ± 0.000586 day⁻¹
kobs, observed first-order rate constant ([2]; initial concentration 50 mg/ml): 0.0127 ± 0.000153 day⁻¹
solubility (physchem; initial dissolved concentration (before crystals appeared)): > 150 mg/mL
solubility at 24 h (physchem; solubility): 59.2 to 71.7 mg/mL (≈ 276 to 335 mM)
solubility at 24 h (physchem; water, pH 6.5, water, solubility in water): 68.1 mg/mL (≈ 318 mM)
kobs, observed first-order rate constant ([3]; 0.01M HCl pH 2.2, 80° C.): 0.00824 day⁻¹
kobs, observed first-order rate constant ([3]; 0.013M Citrate pH 6.5, 80° C.): 0.0106 day⁻¹
kobs, observed first-order rate constant ([3]; 0.02M Citrate pH 5.5, 80° C.): 0.00843 day⁻¹
kobs, observed first-order rate constant ([3]; 0.025M Phosphate pH 6.5, 80° C.): 0.0195 day⁻¹
kobs, observed first-order rate constant ([3]; 0.03M Citrate pH 6.5, 80° C.): 0.0119 day⁻¹
kobs, observed first-order rate constant ([3]; 0.05M Acetate pH 4.0, 80° C.): 0.00119 day⁻¹
kobs, observed first-order rate constant ([3]; 0.05M Acetate pH 5.0, 80° C.): 0.00386 day⁻¹
kobs, observed first-order rate constant ([3]; 0.05M Borate pH 9.2, 80° C.): 0.0333 day⁻¹
kobs, observed first-order rate constant ([3]; 0.05M Citrate pH 3.0, 80° C.): 0.00575 day⁻¹
kobs, observed first-order rate constant ([3]; 0.05M Citrate pH 4.5, 80° C.): 0.00336 day⁻¹
kobs, observed first-order rate constant ([3]; 0.05M Citrate pH 5.5, 80° C.): 0.00957 day⁻¹
kobs, observed first-order rate constant ([3]; 0.05M Phosphate pH 6.5, 80° C.): 0.0135 day⁻¹
kobs, observed first-order rate constant ([3]; 0.05M Phosphate pH 7.4, 80° C.): 0.0168 day⁻¹
kobs, observed first-order rate constant ([3]; 0.065M Citrate pH 6.5, 80° C.): 0.0132 day⁻¹
kobs, observed first-order rate constant ([3]; 0.1M Acetate pH 4.0, 80° C.): 0.00185 day⁻¹
kobs, observed first-order rate constant ([3]; 0.1M Acetate pH 5.0, 80° C.): 0.00516 day⁻¹
kobs, observed first-order rate constant ([3]; 0.1M Borate pH 9.2, 80° C.): 0.0382 day⁻¹
kobs, observed first-order rate constant ([3]; 0.1M Citrate pH 3.0, 80° C.): 0.00882 day⁻¹
kobs, observed first-order rate constant ([3]; 0.1M Citrate pH 4.5, 80° C.): 0.00587 day⁻¹
kobs, observed first-order rate constant ([3]; 0.1M Citrate pH 5.5, 80° C.): 0.0101 day⁻¹
kobs, observed first-order rate constant ([3]; 0.1M HCl pH 1.0, 80° C.): 0.0961 day⁻¹
kobs, observed first-order rate constant ([3]; 0.1M NaOH pH 12.6, 80° C.): 13.1 day⁻¹
kobs, observed first-order rate constant ([3]; 0.1M Phosphate pH 6.5, 80° C.): 0.0149 day⁻¹
kobs, observed first-order rate constant ([3]; 0.1M Phosphate pH 7.4, 80° C.): 0.0187 day⁻¹
kobs, observed first-order rate constant ([3]; 0.135M Phosphate pH 7.4, 80° C.): 0.0183 day⁻¹
kobs, observed first-order rate constant ([3]; 0.18M Citrate pH 4.5, 80° C.): 0.00789 day⁻¹
kobs, observed first-order rate constant ([3]; 0.25M Acetate pH 4.0, 80° C.): 0.00342 day⁻¹
kobs, observed first-order rate constant ([3]; 0.25M Acetate pH 5.0, 80° C.): 0.00801 day⁻¹
kobs, observed first-order rate constant ([3]; 0.25M Borate pH 9.2, 80° C.): 0.0596 day⁻¹
kobs, observed first-order rate constant ([3]; 0.25M Citrate pH 3.0, 80° C.): 0.0197 day⁻¹
kobs, observed first-order rate constant ([3]; 0.3M HCl pH 0.62, 80° C.): 0.263 day⁻¹
kobs, observed first-order rate constant ([3]; 0.3M NaOH pH 13.1, 80° C.): 52.9 day⁻¹
k', first-order rate constant extrapolated to zero buffer concentration ([3]; Acetate pH 4.0, 80° C.): 0.000688 day⁻¹
kB, second-order rate constant for the buffer catalysis ([3]; Acetate pH 4.0, 80° C.): 0.011 day⁻¹ M⁻¹
k', first-order rate constant extrapolated to zero buffer concentration ([3]; Acetate pH 5.0, 80° C.): 0.00296 day⁻¹
kB, second-order rate constant for the buffer catalysis ([3]; Acetate pH 5.0, 80° C.): 0.0203 day⁻¹ M⁻¹
kB, second-order rate constant for the buffer species ([3]; Acetic acid, 80° C.): 0.00813 day⁻¹ M⁻¹
kB, second-order rate constant for the buffer species ([3]; Acetic^-1, 80° C.): 0.0274 day⁻¹ M⁻¹
k', first-order rate constant extrapolated to zero buffer concentration ([3]; Borate pH 9.2, 80° C.): 0.0258 day⁻¹
kB, second-order rate constant for the buffer catalysis ([3]; Borate pH 9.2, 80° C.): 0.134 day⁻¹ M⁻¹
k', first-order rate constant extrapolated to zero buffer concentration ([3]; Citrate pH 3.0, 80° C.): 0.00204 day⁻¹
kB, second-order rate constant for the buffer catalysis ([3]; Citrate pH 3.0, 80° C.): 0.0704 day⁻¹ M⁻¹
k', first-order rate constant extrapolated to zero buffer concentration ([3]; Citrate pH 4.5, 80° C.): 0.00197 day⁻¹
kB, second-order rate constant for the buffer catalysis ([3]; Citrate pH 4.5, 80° C.): 0.034 day⁻¹ M⁻¹
k', first-order rate constant extrapolated to zero buffer concentration ([3]; Citrate pH 5.5, 80° C.): 0.00824 day⁻¹
kB, second-order rate constant for the buffer catalysis ([3]; Citrate pH 5.5, 80° C.): 0.0198 day⁻¹ M⁻¹
k', first-order rate constant extrapolated to zero buffer concentration ([3]; Citrate pH 6.5, 80° C.): 0.0102 day⁻¹
kB, second-order rate constant for the buffer catalysis ([3]; Citrate pH 6.5, 80° C.): 0.0481 day⁻¹ M⁻¹
kB, second-order rate constant for the buffer species ([3]; Citrate^-3, 80° C.): 0.0812 day⁻¹ M⁻¹
kB, second-order rate constant for the buffer species ([3]; Citric Acid, 80° C.): 0.0889 day⁻¹ M⁻¹
kB, second-order rate constant for the buffer species ([3]; Dihydrogen citrate^-1, 80° C.): 0.0458 day⁻¹ M⁻¹
kB, second-order rate constant for the buffer species ([3]; Dihydrogen phosphate^-1, 80° C.): 0.0341 day⁻¹ M⁻¹
kB, second-order rate constant for the buffer species ([3]; Hydrogen citrate^-2, 80° C.): 0.00711 day⁻¹ M⁻¹
kB, second-order rate constant for the buffer species ([3]; Hydrogen phosphate^-2, 80° C.): 0.0101 day⁻¹ M⁻¹
k', first-order rate constant extrapolated to zero buffer concentration ([3]; Phosphate pH 6.5, 80° C.): 0.0119 day⁻¹
kB, second-order rate constant for the buffer catalysis ([3]; Phosphate pH 6.5, 80° C.): 0.0302 day⁻¹ M⁻¹
k', first-order rate constant extrapolated to zero buffer concentration ([3]; Phosphate pH 7.4, 80° C.): 0.0161 day⁻¹
kB, second-order rate constant for the buffer catalysis ([3]; Phosphate pH 7.4, 80° C.): 0.019 day⁻¹ M⁻¹
pH at which overall rate constant was minimum ([3]; hydrolysis, 80° C.): approximately 4
kinetics of hydrolysis ([3]; pH range of 0.6 to 12.6, 80° C.): apparent first-order kinetics
effect of concentration and ionic strength on stability ([3]; summary, 80° C.): negligible effects on the stability
non-autoclaved samples containing crystals again ([4]; various pHs, heated 56° C. 1 hour, then 4 days at 4° C.): 3 of 8
SMILES: O=C(Cn1ccnc1[N+](=O)[O-])NCCO [Etanidazole]
effect of autoclaving on crystal formation ([1]; subsequent storage at 4° C.): autoclaving prevents the formation of crystals
effect of initial concentration on degradation ([2]; 1, 25 and 50 mg/ml): not concentration dependent in this range
primary route of degradation ([3]; analysis of degradation product, 80° C.): through the hydrolysis of the amide linkage
buffer catalysis of degradation ([3]; citrate and acetate at the pH minimum, 80° C.): Citrate and acetate were both catalytic at the pH minimum, with citrate being a stronger catalyst than acetate
crystalline particulates on storage ([4]; 50 mg/ml, aqueous buffer, 4° C.): occasionally develop crystalline particulates
